Measured values published in patent US20200165291A1, “NEUROACTIVE STEROIDS, COMPOSITIONS, AND USES THEREOF” (Sage Therapeutics, Inc., priority 2014, published 2020).
pIC50: −log10 of the molar value. Like-named read-outs stand apart in the source and are kept apart here.

How the values were obtained:
[1] = molecular target: [35S]-TBPS binding, rat brain cortical membranes (GABA receptor complex); experiment: [35S]-TBPS binding (steroid inhibition of TBPS binding); settings: in the presence of 5 μM GABA, read-out: 35S-TBPS Radioligand Displacement
Procedure: [35S]-t-Butylbicyclophosphorothionate (TBPS) binding assays using rat brain cortical membranes in the presence of 5 μM GABA has been described (Gee et al, J. Pharmacol. Exp. Ther. 1987, 241, 346-353; Hawkinson et al, Mol. Pharmacol. 1994, 46, 977-985; Lewin, A. H et al., Mol. Pharmacol. 1989, 35, 189-194).
Briefly, cortices are rapidly removed following decapitation of carbon dioxide-anesthetized Sprague-Dawley rats (200-250 g). The cortices are homogenized in 10 volumes of ice-cold 0.32 M sucrose using a glass/teflon homogenizer and centrifuged at 1500×g for 10 min at 4° C. The resultant supernatants are centrifuged at 10,000×g for 20 min at 4° C. to obtain the P2 pellets. The P2 pellets are resuspended in 200 mM NaCl/50 mM Na-K phosphate pH 7.4 buffer and centrifuged at 10,000×g for 10 min at 4° C. This washing procedure is repeated twice and the pellets are resuspended in 10 volumes of buffer. Aliquots (100 μL) of the membrane suspensions are incubated with 3 nM [^35S]-TBPS and 5 μL aliquots of test drug dissolved in dimethyl sulfoxide (DMSO) (final 0.5%) in the presence of 5 μM GABA. The incubation is brought to a final volume of 1.0 mL with buffer. Nonspecific binding is determined in the presence of 2 μM unlabeled TBPS and ranged from 15 to 25%. Following a 90 min incubation at room temp, the assays are terminated by filtration through glass fiber filters (Schleicher and Schuell No. 32) using a cell harvester (Brandel) and rinsed three times with ice-cold buffer. Filter bound radioactivity is measured by liquid scintillation spectrometry. Non-linear curve fitting of the overall data for each drug averaged for each concentration is done using Prism (GraphPad). […] The concentration of test compound producing 50% inhibition (IC50) of specific binding and the maximal extent of inhibition (Imax) are determined for the individual experiments with the same model used for the overall data and then the means±SEM.s of the individual experiments are calculated.
Various compounds are or can be screened to determine their potential as modulators of [^35S]-TBPS binding in vitro. These assays are or can be performed in accordance with the above discussed procedures.

[2] = molecular target: T1, recombinant α1β2γ2 GABAA receptors (Homo sapiens, UniProt P14867+P47870); experiment: Patch clamp electrophysiology, QPatch, LTK cells; type: cell-based; settings: 10 μM test article, GABA EC20 = 2 μM, read-out: GABA (α1β2γ2) Qpatch in Ltk, % efficacy at 10 μM
T1 construct: expressed in transfected cells
T1 sequence (P14867 28-456): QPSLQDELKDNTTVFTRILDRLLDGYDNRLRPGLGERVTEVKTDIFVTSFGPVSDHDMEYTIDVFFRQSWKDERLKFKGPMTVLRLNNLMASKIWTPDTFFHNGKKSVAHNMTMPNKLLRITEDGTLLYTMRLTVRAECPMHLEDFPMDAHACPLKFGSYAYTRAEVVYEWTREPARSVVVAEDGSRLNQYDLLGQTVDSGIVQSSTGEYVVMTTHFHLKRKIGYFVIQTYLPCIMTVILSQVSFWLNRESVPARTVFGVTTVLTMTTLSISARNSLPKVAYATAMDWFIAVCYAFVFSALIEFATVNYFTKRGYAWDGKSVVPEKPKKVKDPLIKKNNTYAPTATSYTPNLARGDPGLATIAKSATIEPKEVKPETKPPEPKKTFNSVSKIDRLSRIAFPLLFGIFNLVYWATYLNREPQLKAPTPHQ
T1 sequence (P47870 25-512 limits assumed): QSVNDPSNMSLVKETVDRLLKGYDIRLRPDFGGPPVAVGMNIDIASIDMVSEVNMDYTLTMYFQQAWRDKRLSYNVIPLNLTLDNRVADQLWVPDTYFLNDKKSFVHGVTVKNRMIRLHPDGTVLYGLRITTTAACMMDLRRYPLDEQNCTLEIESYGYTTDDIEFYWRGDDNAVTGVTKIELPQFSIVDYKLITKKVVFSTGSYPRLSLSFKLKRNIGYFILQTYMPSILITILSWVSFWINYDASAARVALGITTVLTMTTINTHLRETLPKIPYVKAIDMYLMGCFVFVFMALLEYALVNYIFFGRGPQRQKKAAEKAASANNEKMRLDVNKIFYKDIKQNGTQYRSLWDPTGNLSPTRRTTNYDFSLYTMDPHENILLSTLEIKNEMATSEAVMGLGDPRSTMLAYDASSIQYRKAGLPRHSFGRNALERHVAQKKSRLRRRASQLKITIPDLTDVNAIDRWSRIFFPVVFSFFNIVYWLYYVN
T1 sequence (P18507 40-475 partner): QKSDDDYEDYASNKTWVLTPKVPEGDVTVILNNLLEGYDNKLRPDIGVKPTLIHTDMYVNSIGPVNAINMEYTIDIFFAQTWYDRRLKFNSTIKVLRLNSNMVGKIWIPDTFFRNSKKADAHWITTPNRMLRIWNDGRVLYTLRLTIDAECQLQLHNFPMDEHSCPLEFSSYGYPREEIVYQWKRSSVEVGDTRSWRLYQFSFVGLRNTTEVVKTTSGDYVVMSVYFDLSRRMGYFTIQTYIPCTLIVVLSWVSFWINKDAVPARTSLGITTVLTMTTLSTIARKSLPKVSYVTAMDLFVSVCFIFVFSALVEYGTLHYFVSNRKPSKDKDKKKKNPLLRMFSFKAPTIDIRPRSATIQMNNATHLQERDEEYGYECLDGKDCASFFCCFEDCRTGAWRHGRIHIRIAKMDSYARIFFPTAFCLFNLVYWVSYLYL

C[C@@]1(O)CC[C@H]2[C@H](CC[C@@H]3[C@@H]2CC[C@]2(C)[C@@H](C(=O)Cn4cncn4)CC[C@@H]32)C1 [SA-1]
pIC50 [1]: 6.30 to 7.00
Emax at 10 µM [2]: 100 to 500%

Cc1cn(CC(=O)[C@H]2CC[C@H]3[C@@H]4CC[C@@H]5C[C@](C)(O)CC[C@@H]5[C@H]4CC[C@]23C)nn1 [SA-5]
Emax at 10 µM [2]: > 500%

C[C@@]1(O)CC[C@H]2[C@H](CC[C@@H]3[C@@H]2CC[C@]2(C)[C@@H](C(=O)Cn4nnc(C(F)(F)F)n4)CC[C@@H]32)C1 [SA-8]
Emax at 10 µM [2]: 100 to 500%

C[C@@]1(O)CC[C@H]2[C@H](CC[C@@H]3[C@@H]2CC[C@]2(C)[C@@H](C(=O)Cn4cc(C#N)nn4)CC[C@@H]32)C1 [SA-20]
Emax at 10 µM ([2]; in cremophor): 100 to 500%

C[C@]12CC[C@H]3[C@@H](CC[C@H]4C[C@@](O)(CF)CC[C@@H]43)[C@@H]1CC[C@@H]2C(=O)Cn1ccnn1 [SD-1]
pIC50 [1]: < 6.30

Cc1nnnn1CC(=O)[C@H]1CC[C@H]2[C@@H]3CC[C@H]4C[C@@](O)(CF)CC[C@@H]4[C@H]3CC[C@]12C [SD-2]
Emax at 10 µM [2]: 100 to 500%

Cc1nnn(CC(=O)[C@H]2CC[C@H]3[C@@H]4CC[C@H]5C[C@@](O)(CF)CC[C@@H]5[C@H]4CC[C@]23C)n1 [SD-3]
Emax at 10 µM [2]: 100 to 500%

C[C@]12CC[C@H]3[C@@H](CC[C@H]4C[C@@](O)(CF)CC[C@@H]43)[C@@H]1CC[C@@H]2C(=O)Cn1cnnn1 [SD-4]
pIC50 [1]: < 6.30
Emax at 10 µM [2]: 100 to 500%

CC[C@@]1(O)CC[C@H]2[C@H](CC[C@@H]3[C@@H]2CC[C@]2(C)[C@@H](C(=O)Cn4cnnn4)CC[C@@H]32)C1 [SE-1]
Emax at 10 µM [2]: 100 to 500%

CC[C@@]1(O)CC[C@H]2[C@H](CC[C@@H]3[C@@H]2CC[C@]2(C)[C@@H](C(=O)Cn4ncnn4)CC[C@@H]32)C1 [SE-2]
Emax at 10 µM [2]: > 500%

CC[C@@]1(O)CC[C@H]2[C@H](CC[C@@H]3[C@@H]2CC[C@]2(C)[C@@H](C(=O)Cn4ccnn4)CC[C@@H]32)C1 [SE-3]
pIC50 [1]: 6.30 to 7.00
Emax at 10 µM [2]: 100 to 500%

CC[C@@]1(O)CC[C@H]2[C@H](CC[C@@H]3[C@@H]2CC[C@]2(C)[C@@H](C(=O)Cn4nnnc4C)CC[C@@H]32)C1 [SE-5]
pIC50 [1]: < 6.30

CC[C@@]1(O)CC[C@H]2[C@H](CC[C@@H]3[C@@H]2CC[C@]2(C)[C@@H](C(=O)Cn4nnc(C)n4)CC[C@@H]32)C1 [SE-6]
pIC50 [1]: < 6.30
Emax at 10 µM [2]: 10 to 100%

C[C@]12CC[C@H]3[C@@H](CC[C@@H]4C[C@@](O)(CF)CC[C@@H]43)[C@@H]1CC[C@@H]2C(=O)Cn1cnnn1 [SF-1]
pIC50 [1]: 6.30 to 7.00
Emax at 10 µM [2]: 100 to 500%

C[C@]12CC[C@H]3[C@@H](CC[C@@H]4C[C@@](O)(CF)CC[C@@H]43)[C@@H]1CC[C@@H]2C(=O)Cn1ccnn1 [SF-4]
pIC50 [1]: 6.30 to 7.00
Emax at 10 µM [2]: 100 to 500%

Cc1nnnn1CC(=O)[C@H]1CC[C@H]2[C@@H]3CC[C@@H]4C[C@@](O)(C(F)F)CC[C@@H]4[C@H]3CC[C@]12C [SG-3]
Emax at 10 µM [2]: 100 to 500%

Cc1nnn(CC(=O)[C@H]2CC[C@H]3[C@@H]4CC[C@@H]5C[C@@](O)(C(F)F)CC[C@@H]5[C@H]4CC[C@]23C)n1 [SG-4]
Emax at 10 µM [2]: 100 to 500%

C[C@@]1(O)CC[C@@H]2[C@H]3CC[C@]4(C)[C@@H](C(=O)Cn5ccnn5)CC[C@H]4[C@@H]3C[C@@H](F)[C@@H]2C1 [SH-1]
pIC50 [1]: < 6.30

C[C@@]1(O)CC[C@@H]2[C@H]3CC[C@]4(C)[C@@H](C(=O)Cn5nccn5)CC[C@H]4[C@@H]3C[C@@H](F)[C@@H]2C1 [SH-2]
pIC50 [1]: < 6.30
Emax at 10 µM [2]: 100 to 500%

CO[C@@H]1C[C@@H]2[C@H](CC[C@]3(C)[C@@H](C(=O)Cn4ccnn4)CC[C@@H]23)[C@H]2CC[C@@](C)(O)C[C@H]21 [SL-1]
pIC50 [1]: < 6.30
Emax at 10 µM [2]: 10 to 100%

CO[C@@H]1C[C@@H]2[C@H](CC[C@]3(C)[C@@H](C(=O)Cn4nccn4)CC[C@@H]23)[C@H]2CC[C@@](C)(O)C[C@H]21 [SL-2]
pIC50 [1]: < 6.30
Emax at 10 µM [2]: 10 to 100%

COC[C@@]1(O)CC[C@H]2[C@H](CC[C@@H]3[C@@H]2CC[C@]2(C)[C@@H](C(=O)Cn4cnnn4)CC[C@@H]32)C1 [SM-1]
pIC50 [1]: 6.30 to 7.00
Emax at 10 µM [2]: 100 to 500%

COC[C@@]1(O)CC[C@H]2[C@H](CC[C@@H]3[C@@H]2CC[C@]2(C)[C@@H](C(=O)Cn4nnnc4C)CC[C@@H]32)C1 [SM-3]
Emax at 10 µM [2]: > 500%

COC[C@@]1(O)CC[C@H]2[C@H](CC[C@@H]3[C@@H]2CC[C@]2(C)[C@@H](C(=O)Cn4nnc(C)n4)CC[C@@H]32)C1 [SM-4]
Emax at 10 µM [2]: > 500%

COC[C@@]1(O)CC[C@H]2[C@H](CC[C@@H]3[C@@H]2CC[C@]2(C)[C@@H](C(=O)Cn4ccnn4)CC[C@@H]32)C1 [SM-5]
pIC50 [1]: 6.30 to 7.00
Emax at 10 µM [2]: > 500%

C[C@@H]1C[C@H]2[C@@H](CC[C@@H]3[C@@H]2CC[C@]2(C)[C@@H](C(=O)Cn4ccnn4)CC[C@@H]32)C[C@]1(C)O [SN-1]
pIC50 [1]: 7.00 to 7.30
Emax at 10 µM [2]: 100 to 500%

CCOC[C@@]1(O)CC[C@H]2[C@H](CC[C@@H]3[C@@H]2CC[C@]2(C)[C@@H](C(=O)Cn4nnnc4C)CC[C@@H]32)C1 [SO-1]
Emax at 10 µM [2]: 100 to 500%

CCOC[C@@]1(O)CC[C@H]2[C@H](CC[C@@H]3[C@@H]2CC[C@]2(C)[C@@H](C(=O)Cn4nnc(C)n4)CC[C@@H]32)C1 [SO-2]
pIC50 [1]: < 6.30

CC[C@@]1(O)CC[C@H]2[C@@H](CC[C@@H]3[C@@H]2CC[C@]2(C)[C@@H](C(=O)Cn4ccnn4)CC[C@@H]32)C1 [SP-1]
pIC50 [1]: < 6.30

CC[C@@]1(O)CC[C@H]2[C@@H](CC[C@@H]3[C@@H]2CC[C@]2(C)[C@@H](C(=O)Cn4ncnn4)CC[C@@H]32)C1 [SP-3]
Emax at 10 µM [2]: 100 to 500%

CC[C@@]1(O)CC[C@H]2[C@@H](CC[C@@H]3[C@@H]2CC[C@]2(C)[C@@H](C(=O)Cn4nnc(C)n4)CC[C@@H]32)C1 [SP-5]
Emax at 10 µM [2]: 100 to 500%

CCOC[C@@]1(O)CC[C@H]2[C@@H](CC[C@@H]3[C@@H]2CC[C@]2(C)[C@@H](C(=O)Cn4ccnn4)CC[C@@H]32)C1 [SQ-1]
pIC50 [1]: < 6.30

CCOC[C@@]1(O)CC[C@H]2[C@@H](CC[C@@H]3[C@@H]2CC[C@]2(C)[C@@H](C(=O)Cn4nccn4)CC[C@@H]32)C1 [SQ-2]
Emax at 10 µM [2]: 100 to 500%

CCOC[C@@]1(O)CC[C@H]2[C@@H](CC[C@@H]3[C@@H]2CC[C@]2(C)[C@@H](C(=O)Cn4ncnn4)CC[C@@H]32)C1 [SQ-3]
Emax at 10 µM [2]: > 500%

CCOC[C@@]1(O)CC[C@H]2[C@@H](CC[C@@H]3[C@@H]2CC[C@]2(C)[C@@H](C(=O)Cn4cnnn4)CC[C@@H]32)C1 [SQ-4]
Emax at 10 µM [2]: 100 to 500%

CCOC[C@@]1(O)CC[C@H]2[C@@H](CC[C@@H]3[C@@H]2CC[C@]2(C)[C@@H](C(=O)Cn4nnnc4C)CC[C@@H]32)C1 [SQ-5]
pIC50 [1]: < 6.30

CCOC[C@@]1(O)CC[C@H]2[C@@H](CC[C@@H]3[C@@H]2CC[C@]2(C)[C@@H](C(=O)Cn4nnc(C)n4)CC[C@@H]32)C1 [SQ-6]
Emax at 10 µM [2]: 100 to 500%

C[C@]12CC[C@H]3[C@@H](CC[C@H]4C[C@@](O)(C(F)F)CC[C@@H]43)[C@@H]1CC[C@@H]2C(=O)Cn1ccnn1 [SS-1]
pIC50 [1]: 6.30 to 7.00

Cc1cnn(CC(=O)[C@H]2CC[C@H]3[C@@H]4C[C@@H](F)[C@H]5C[C@](C)(O)CC[C@@H]5[C@H]4CC[C@]23C)n1 [SV-7]
Emax at 10 µM [2]: 100 to 500%

Cc1cn(CC(=O)[C@H]2CC[C@H]3[C@@H]4C[C@@H](F)[C@H]5C[C@](C)(O)CC[C@@H]5[C@H]4CC[C@]23C)nn1 [SV-8]
Emax at 10 µM [2]: > 500%

Cc1cnnn1CC(=O)[C@H]1CC[C@H]2[C@@H]3C[C@@H](F)[C@H]4C[C@](C)(O)CC[C@@H]4[C@H]3CC[C@]12C [SV-9]
Emax at 10 µM [2]: 100 to 500%

CO[C@@H]1C[C@@H]2[C@H](CC[C@]3(C)[C@@H](C(=O)Cn4nccn4)CC[C@@H]23)[C@H]2CC[C@@](C)(O)C[C@@H]21 [SW-2]
pIC50 [1]: < 6.30
